Measured values published in US20210236494A1, “THERAPEUTIC COMBINATION” (Oncologica UK Ltd., priority 2018, published 2021).

Tests used:
IMR90 cells [1] = assay: Cell population growth by phase contrast microscopy; assay type: cell-based, human; conditions: IMR90, 144 hour time course; plateau 48 to 120 hours post-transfection
Description: (§1) Phase contrast microscopy was performed over a period of 144 hours with an inverted Aziover 200m (Carl Zeiss, Welwyn Garden City, Uk) and Axiovision software to assess cell population growth.

HBEpC cells [2] = assay: as above; assay type: cell-based, human; conditions: 144 hour time course, plateau 48 to 120 hours post-transfection
Description: as §1

[3] = system: SKOV-3, Saos-2, BT-549 and NCI-H322M cells; assay: Apoptosis by morphology and western blot of pro-caspase 3 and 9 cleavage in cancer cells; assay type: cell-based; conditions: 96 hours post-transfection; cancer cells lacking functional p53
Description: On this basis, RNAi was then used to investigate the effects of Cdc7 loss in epithelial and mesenchymal cancer cell lines deficient in functional p53. In this experiment, SKOV-3 ovarian carcinoma cells (HTB-77, ATCC) and Saos-2 osteosarcoma cells (HTB-85, ATCC) in McCoy's 5A medium (26600, Invitrogen) supplemented with 15% FBS, BT-549 mammary ductal carcinoma cells (HTB-122, ATCC) in RPMI-1640 medium (52400, Invitrogen) supplemented with 10% FBS and 10 μg/ml insulin (10516, Sigma); and NCI-H322M bronchioalveolar carcinoma cells (95111734, ECACC) in RPMI-1640 medium were used.
Cells were transfected with siRNA as described in Example 1 and the effects on mRNA expression, western blotting and cell population growth were assessed also as described in Example 1.

IMR90 cells [4] = assay: Flow cytometry of DNA content (cell cycle, sub G1); assay type: cell-based, human
Description: (§2) After 24 hours medium was removed and cells were retransfected with control (20 nmol/L), CDC7 (10 nmol/L) plus control (10 nmol/L), or CDC7 (10 nmol/L) plus p53 (9 nmol/L duplex plus 1 nmol/L SMARTpool) siRNA mixtures. Cells were harvested at the indicated time points after the second transfection. Efficient knockdown was assessed by qRT-PCR and/or Western blot.
(§3) To test this hypothesis, HBEpC bronchial epithelial cells and IMR90 mesenchymal fibroblasts were transfected with CDC7-siRNA or control-siRNA 48 hours prior to treatment with 500 nM paclitaxel or DMSO and then cultured for a further 24 hours. Cells were harvested and apoptosis was monitored by phase contrast microscopy, flow cytometry and western blot detection of pro-caspase 3 and 9 cleavage.

HBEpC cells [5] = assay: Flow cytometry of DNA content (cell cycle, sub G1); assay type: cell-based, human
Description: as §2, §3

CDC7 mRNA in HBEpC cells = assay: qRT-PCR of CDC7 mRNA after CDC7-siRNA transfection; assay type: cell-based, human; conditions: 72 hours post-transfection, 25 nM siRNA
From the text: (§4) Cells were then transfected with CDC7-siRNA to inhibit CDC7 expression. Specifically, CDC7 expression was inhibited with custom double-stranded RNA oligos (5′-[…]-3′ (SEQ ID NO 1) and 5′-[…]-3′ (SEQ ID NO 2) Thermo Scientific), using previously described methods (Tudzarove S. et al 2010 supra.). Non-targeting siRNA was used as a negative control (12935-300, Invitrogen). CDC7 or control siRNA duplexes were transfected using Lipofectamine 2000 (11668019, Invitrogen) according to the manufacturer's recommendations at an optimized concentrations of 10 nM for IMR90 and 25 nM for HBEpC.
(§5) At 72 hours post-transfection, CDC7 mRNA levels were measured using qPCR in order to evaluate the efficiency of transfection with CDC7. In particular, Total RNA was isolated from cells with the PureLink Microto-Midi Total RNA Purification System (Invitrogen) according to the manufacturer's instructions. Total RNA (40 ng) was reverse transcribed, and real-time PCR was performed using a SuperScript III Platinum SYBR Green OneStep qRTPCR kit (Invitrogen) following the manufacturer's instructions. Reactions were carried out in an Eppendorf Mastercycler ep Realplex Real-Time PCR System (Eppendorf, Cambridge, UK), and results were analyzed with Realplex v1.5 software (Eppendorf). […]

CDC7 mRNA in IMR90 cells = assay: qRT-PCR of CDC7 mRNA after CDC7-siRNA transfection; assay type: cell-based, human; conditions: IMR90, 72 hours post-transfection, 10 nM siRNA
From the text: as §4, §5

[6] = system: HBEpC bronchial epithelial primary cells; assay: Western blotting of whole cell extracts; assay type: cell-based, human
Description: (§6) In addition, whole cell extracts (WCE) were prepared by cell lysis in modified RIPA buffer (50 mmol/L Tris-Cl pH 7.4, 300 mmol/L NaCl, 0.1% NP40, 1% Triton X-100, 0.5% sodium deoxycholate, 0.1% SDS, 5 mmol/L EDTA, 1 mmol/L EGTA, 100 mmol/L sodium fluoride and 1 mmol/L sodium orthovanadate) followed by sonication for 10 seconds. These were analysed by Western Blotting, in which fifty micrograms of protein was loaded in each lane, separated by 4-20% SDS-PAGE, and transferred by semidry electroblotting onto Hybond C Extra nitrocellulose membranes (GE Healthcare, Buckinghamshire, UK).
(§7) Primary antibodies used were: caspase 3 (NB500-210, Novus Biologicals); caspase 9 (sc-17784, Santa Cruz Biotechnology); Cdc7 (K0070-3, MBL International); cyclin A (sc-596, Santa Cruz Biotechnology); cyclin E (MS-870-P, NeoMarkers); Mcm2 pS53 (A300-756A, Bethyl Laboratories); PCNA (610665, BD Biosciences); Rb (554136, BD Biosciences); Rb pS807/811 (9308, Cell Signaling Technologies); TBP (A301-229A, Bethyl Laboratories).
(§8) Blocking, antibody incubations (using various antibodies including anti-Cdc7 or anti-Mcm2 pS53 antibodies), and washing steps were performed.
(§9) Cells were harvested and apoptosis was monitored by phase contrast microscopy, flow cytometry and western blot detection of pro-caspase 3 and 9 cleavage.

[7] = system: IMR90 mesenchymal diploid fibroblasts; assay: Western blotting of whole cell extracts; assay type: cell-based, human
Description: as §6, §7, §8, §9

IMR90 cells [8] = assay: Apoptosis monitored by phase contrast microscopy; assay type: cell-based, human; conditions: siRNA (CDC7 or control) 48 hours prior to 500 nM paclitaxel for 24 hours
Description: as §3

HBEpC cells [9] = assay: Apoptosis monitored by phase contrast microscopy; assay type: cell-based, human; conditions: siRNA (CDC7 or control) 48 hours prior to 500 nM paclitaxel for 24 hours
Description: as §3

[10] = IMR90, 72 hours post-transfection
[11] = IMR90, siRNA (CDC7 or control) 48 hours prior to 500 nM paclitaxel for 24 hours
[12] = siRNA (CDC7 or control) 48 hours prior to 500 nM paclitaxel for 24 hours

What does the source list for “CDC7-siRNA: custom double-stranded RNA oligos (5′-GCUCAGCAGGAAAGGUGUUUU-3′ SEQ ID NO 1 and 5′-AACACCUUUCCUGCUGAGCUU-3′ SEQ ID NO 2) inhibiting CDC7 expression (RNA, backbone not given here)”?
cell proliferation (cell numbers) (IMR90 cells [1]): cessation of cell proliferation; cell proliferation (cell numbers) (HBEpC cells [2]): cessation of cell proliferation; apoptosis (morphology, cleavage of pro-caspases 3 and 9 in WCE) [3]: Induction of apoptosis; cell cycle distribution (IMR90 cells [4]; [10]): accumulation consistent with a G1 arrest; cells with less than 2C (sub G1) DNA content (IMR90 cells [4]; IMR90, Cdc7-depleted alone): not detected; cell cycle distribution (HBEpC cells [5]; 72 hours post-transfection): accumulation consistent with a G1 arrest; cells with less than 2C (sub G1) DNA content (HBEpC cells [5]; Cdc7-depleted alone): not detected; CDC7 mRNA levels reduced relative to control siRNA transfected (CO) cells (CDC7 mRNA in HBEpC cells): 89%; CDC7 mRNA levels reduced relative to control siRNA transfected (CO) cells (CDC7 mRNA in IMR90 cells): 87%; CDC7 protein levels ([6]; 72 hours post-transfection): undetectable; Mcm2 phosphorylation at Ser-53 ([6]; 72 hours post-transfection): abolished; CDC7 protein levels [7, 10]: undetectable; Mcm2 phosphorylation at Ser-53 [7, 10]: abolished

What does the source list for `CC(=O)O[C@H]1C(=O)[C@@]2(C)[C@H]([C@H](OC(=O)c3ccccc3)[C@]3(O)C[C@H](OC(=O)[C@H](O)[C@@H](NC(=O)c4ccccc4)c4ccccc4)C(C)=C1C3(C)C)[C@]1(OC(C)=O)CO[C@@H]1C[C@@H]2O` [paclitaxel]?
percentage of cells with less than 2C (sub G1) DNA content (IMR90 cells [4]; [11]): 35%; percentage of cells with less than 2C (sub G1) DNA content (HBEpC cells [5]; [12]): 30%; pro-caspase 3 and 9 levels [6, 12]: marked reduction; pro-caspase 3 and 9 levels [7, 11]: marked reduction; cell morphology (apoptosis) (IMR90 cells [8]): morphological signs of apoptosis; cell morphology (apoptosis) (HBEpC cells [9]): morphological signs of apoptosis
